The subject of one data set is plasma cholesterol. In words: Hypocholesterolemic activity, plasma cholesterol in mice fed test compound in diet. In kind it is in vivo, OF1 strain mice. Particulars: for change in vivo at 180 mg/kg/day: Mus musculus, feed or water, 240 h, read-out: Plasma Cholesterol (% Control), 0.1% compound in food, 10 days, ca. 180 mg/kg daily, mouse. Here is the method:
A. Hypocholesterolemic activity
Mouse fed a normal diet is a convenient model which was proposed by several authors (P. Olivier et al, Atherosclerosis 70, 107-114, 1988) ,for the screening for hypocholesterolemic drugs. OF1 strain mice (Iffa Credo) weighing between 25 and 35 g were divided into 5 groups of 5 animals each, four groups received the test compounds and the fifth group served as control. The test compounds were dissolved in diethyl ether. The ether solution was added to food to obtain a final concentration of 0.1%. compound in food. Ether was then evaporated at room temperature. The animals were fed for 10 days, the dally food intake corresponds to ca. 180 mg/kg. After an overnight fast, they were sacrificed by decapitation under ether anesthesia. Blood samples were collected using EDTA as anticoagulant.
Plasma cholesterol was measured by an enzymatic test (DIAMED, Morat, Switzerland). The mean values of each group receiving the test or reference compounds were expressed as percent of mean value of the contemporary control.

Data set [1] relates to lipid peroxidation (rat liver homogenate). In words: Antioxidant activity, inhibition of iron induced lipid peroxidation in liver homogenate. The following applies: FeSO4, 37° C., 2 h; <25 μM where IC50 was not determined. In kind it is biochemical, Wistar rat. Here is the method:
The liver of a Wistar rat anesthetized with ether was collected and homogenized in 4 volumes of phosphate buffer (+4° C., pH 7.4) by means of a Potter. After centrifugation at 2000 rpm for 10 min the supernatant obtained was kept at +4° C. Lipid peroxidation was carried out in presence of FeSOhd according to the method described by A. T. Quitaniha et at, Ann.
The mixture contained 1.7 ml phosphate buffer, 0.2 ml homogenate and 0.1 ml of a 2 mM FeSO4 solution. The test compounds were added in a volume of 61 μl of ethanol or DMSO. Oxydation was carried out at 37° C. for 2 h and was stopped by the addition of 20 μl of 2% ethanolic solution of BHT.

Another data set relates to HMGCoA reductase. In words: Inhibition of the enzyme HMGCoA reductase. The data set is classed as biochemical. Particulars: positive control.
Another data set concerns Hep G2 cells. In words: Incorporation of 14C acetate in cholesterol synthesized by Hep G2 cells. The data set is classed as cell-based. Particulars: positive control.
The test system of a further data set is CaCo-2. In kind it is cell-based. From the text:
In these two tests the positive control Lovastatin (hypocholesterolemic drug with HMGCoA reductase inhibitory activity) inhibits the enzyme and the ^14 C acetate incorporation by more than 98%. The mechanism of hypocholesterolemia of this class is different and potentially unique.

Data set [2] concerns deposition of cholesterol in the arteries. The following applies: hereditary atherosclerotic rabbits; cited from earlier work.
The next data set relates to xanthomas. Particulars: patients suffering from familial hypercholesterolemia; cited from earlier work.

Structures are written as SMILES. A value given as a limit tells only on which side of the number the result lay.

On to `CCOP(=O)(OCC)C(NC1CCCCC1)c1cc(C(C)(C)C)c(O)c(C(C)(C)C)c1` (centres unmarked) [Compound 65], for which the change in vivo at 180 mg/kg/day in the data set with plasma cholesterol was 7%. Also, the half-maximal inhibitory concentration (IC50) – broadly, the concentration that gives 50% inhibition – in data set [1] is under 25 µM.
Taken in the same sequence, the figures for `CCOP(=O)(OCC)C(NCCCc1ccccc1)c1cc(C(C)(C)C)c(OC)c(C(C)(C)C)c1` (stereo not drawn) [Compound 67, Diethyl α-(3.5-di-tert-butyl-4-methoxyphenyl)-N-(3-phenylpropyl)-aminomethylphosphonate] were -22% and over 25 µM.
Taken in the same sequence, the figures for `CCOP(=O)(OCC)C(Cc1cc(C(C)(C)C)c(O)c(C(C)(C)C)c1)NCCCc1ccccc1` (stereo not drawn) [Compound 68, Diethyl α-(3,5-di-tert-butyl-4-hydroxybenzyl)-N-(3-phenylpropyl)-aminomethylphosphonate] were -18% and under 25 µM.
In the case of `CCOP(=O)(OCC)C(NCc1ccccc1)c1ccc(O)c(OC)c1` (centres unmarked) [Compound 70], in the data set with plasma cholesterol, the change in vivo at 180 mg/kg/day is -10%. In data set [1], this compound returned an IC50 of over 25 µM.
Taken in the same sequence, the figures for `CCOP(=O)(OCC)C(NCc1ccccc1)c1cc(OC)c(O)c(OC)c1` (centres unmarked) [Compound 71] were 1% and over 25 µM.
For `CCOP(=O)(OCC)C(NCCc1ccccc1)c1cc(C)c(O)c(C)c1` (centres unmarked) [Compound 72] the same measures were -1% and over 25 µM.
As to `CCOP(=O)(OCC)C(NCCc1ccccc1)c1cc(C(C)CC)c(O)c(C(C)CC)c1` (stereo not drawn) [Compound 73, Diethyl α-(3,5 di-sec-butyl-4-hydroxyphenyl)-N-(2-phenylethyl) aminomethylphosphonate], in the data set with plasma cholesterol, the change in vivo at 180 mg/kg/day is -40%. The “decrease plasma cholesterol by” value in the data set with plasma cholesterol (mouse, 0.1% in food, 10 days) is reported as “more than 30%”. Moreover, the half-maximal inhibitory concentration (IC50) in data set [1] stood at 2.9 µM.
Turning to `CCOP(=O)(OCC)C(NCCc1ccccc1)c1cc(C(C)C)c(O)c(C(C)C)c1` (centres unmarked) [Compound 74], the change in vivo at 180 mg/kg/day in the data set on plasma cholesterol is -16%. In data set [1], this compound displayed an IC50 of 4.4 µM.
For `CCOP(=O)(OCC)C(NCCc1ccccc1)c1cc(C)c(O)c(C(C)(C)C)c1` (centres unmarked) [Compound 75] the same measures were -12% and 4.8 µM.
Consider `CCOP(=O)(OCC)C(NCCc1ccc(Cl)cc1)c1ccc(O)cc1` (centres unmarked) [Compound 76], for which, in the data set with plasma cholesterol, the change in vivo at 180 mg/kg/day is -16%. The compound also had a concentration for half-maximal inhibition (IC50) in data set [1] of over 25 µM.
Taken in the same sequence, the figures for `CCOP(=O)(OCC)C(NCCCc1ccccc1)c1ccc(O)c([N+](=O)[O-])c1` (centres unmarked) [Compound 77] were -3% and over 25 µM.
As to `CCOP(=O)(OCC)C(NCCCc1ccccc1)c1ccc(O)c(O)c1` (centres unmarked) [Compound 78], the change in vivo at 180 mg/kg/day in the data set on plasma cholesterol was -5%. The half-inhibitory concentration (IC50) in data set [1] is under 25 µM.
For `CCOP(=O)(OCC)C(NCCCc1ccccc1)c1ccc(OC)cc1` (centres unmarked) [Compound 79] the same measures were 9% and over 25 µM.
For `CCOP(=O)(OCC)C(NCCCc1ccccc1)c1ccc2c(c1)OCO2` (stereo not drawn) [Compound 80, Diethyl α-(3,4t-methylenedioxyphenyl)-N-(3-phenylpropyl)-aminomethylphosphonate] the same measures were -29% and over 25 µM.
As for `CC[C@H](C)C(=O)O[C@H]1C[C@@H](C)C=C2C=C[C@H](C)[C@H](CC[C@@H]3C[C@@H](O)CC(=O)O3)[C@H]21` [Lovastatin], in the data set on HMGCoA reductase, the “inhibition of HMGCoA reductase” value is “more than 98%”. Further, the “inhibition of 14C acetate incorporation, Hep G2” value in the data set on Hep G2 cells is recorded as “more than 98%”. Besides, the “inhibition of 14C acetate incorporation, CaCo-2” value in the data set on CaCo-2 is “more than 98%”.
For `CC(C)(Sc1cc(C(C)(C)C)c(O)c(C(C)(C)C)c1)Sc1cc(C(C)(C)C)c(O)c(C(C)(C)C)c1` [Probucol], in data set [1], the half-inhibitory concentration (IC50) is over 25 µM. Moreover, in data set [2], the “effect on deposition of cholesterol in the arteries (in words)” value was “prevents the deposition of cholesterol in the arteries”. For the same compound, the “effect on xanthomas (in words)” value with xanthomas is listed as “induces the regression of xanthomas”.

Values taken from patent US5424303A, “Substituted aminophosphonate derivatives, process for their preparation and pharmaceutical compositions containing them” (Symphar SA, priority 1992, dated 1995).
